In patent US9604940B2 (Chroma Therapeutics Ltd., priority 2012, dated 2017) one finds IC50 data, which are given here for 19 molecules.

SMILES strings stand for the structures. A value given as a limit tells only on which side of the number the result lay.

For one assay, the target named is T1, CSF1R (FMS) (Homo sapiens, UniProt P07333).
T1 construct: purchased Invitrogen (Paisley, UK)
The assay is described as follows: CSF1R (FMS) kinase activity, Z'-LYTE biochemical assay (Invitrogen). Conditions: ATP at or close to Km, 60 minute reaction at room temperature, read-out: Inhibitor activity versus CSF-1. As to the method:
CSF1R (FMS) Kinase Activity
The ability of compounds to inhibit CSF1R (FMS) kinase activity was measured in an assay performed by Invitrogen (Paisley, UK). The Z′-LYTE™ biochemical assay employs a fluorescence-based, coupled-enzyme format and is based on the differential sensitivity of phosphorylated and non-phosphorylated peptides to proteolytic cleavage. The peptide substrate is labelled with two fluorophores—one at each end—that make up a FRET pair. In the primary reaction, the kinase transfers the gamma-phosphate of ATP to a single […] residue in a synthetic FRET-peptide. In the secondary reaction, a site-specific protease recognizes and cleaves non-phosphorylated FRET-peptides. Phosphorylation of FRET-peptides suppresses cleavage by the Development Reagent. Cleavage disrupts FRET between the donor (i.e. coumarin) and acceptor (i.e. fluorescein) fluorophores on the FRET-peptide, whereas uncleaved, phosphorylated FRET-peptides maintain FRET. A […] method, which calculates the ratio (the Emission Ratio) of donor emission to acceptor emission after excitation of the donor fluorophore at 400 nm, is used to quantitate reaction progress.
The final 10 μL Kinase Reaction consists of 0.12-12.3 ng CSF1R (FMS), 2 μM Tyr 01 Peptide and ATP in 50 mM HEPES pH 7.5, 0.01% BRIJ-35, 10 mM MgCl2, 1 mM EGTA. The assay is performed at an ATP concentration at, or close to, the Km. After the 60 minute Kinase Reaction incubation at room temperature, 5 μL of a 1:256 dilution of Development Reagent is added. The assay plate is incubated for a further 60 minutes at room temperature and read on a fluorescence plate reader.
Duplicate data points are generated from a ⅓ log dilution series of a stock solution of test compound in DMSO. Nine dilutions steps are made from a top concentration of 10 mM, and a ‘no compound’ blank is included. Data is collected and analysed using XLfit software from IDBS. The dose response curve is curve fitted to model number 205 (sigmoidal dose-response model). From the curve generated, the concentration giving 50% inhibition is determined and reported.

For a further assay, the system named is MCP-1. The assay is described as follows: MCSF-stimulation of human whole blood, MCP-1 levels by sandwich ELISA. To be noted: inhibitor 2 hours before MCSF 50 ng/ml, 22 hrs, MCP-1 in cell-free supernatants, read-out: Inhibitor activity versus MCP-1. Format: cell-based. How it is done:
Macrophage Colony-Stimulating Factor (MCSF)-Stimulation of Human Whole Blood
Whole blood was taken by venous puncture using heparinised vacutainers (Becton Dickinson) and diluted in an equal volume of RPMI1640 tissue culture media (Sigma). 100 μl was plated in V-bottomed 96 well tissue culture treated plates. 2 hours after the addition of the inhibitor in 100 μl of RPMI1640 media, the blood was stimulated with MCSF (Peprotech: #300-25-10 uG) at a final concentration of 50 ng/ml and incubated at 37° C. in 5% CO2 for 22 hrs. MCP-1 levels were measured from cell-free supernatants by sandwich ELISA developed from MCP-1/CCL2 Duoset (R&D Systems #DY279). Additional reagents required for ELISA were purchased from Sigma, (BSA: A3059, 10×PBS: D1408, Tween20: P5927) R&D Systems, (colour reagent: #DY999 and stop solution: #DY994) and Costar (96-well EIA plates: #2592). Assays were carried out following the manufacturer's instructions with the following modifications: Cell-free supernatants were diluted 30:70 in reagent diluent before assay. All incubations except capture antibody were carried out with shaking at 550 rpm. 3 washes were carried out between steps, and incubation times were blocking 1.5 hr, sample/standard and detection antibody incubations 2 hr, HRP incubation 30 min, colour development 20 min. • IC50 values were allocated to one of five ranges as follows: • Range A: IC50<100 nM • Range B: 100 nM<IC50<300 nM • Range C: 300 nM<1050<1000 nM • Range D: 1000 nM<IC50<5000 nM • Range E: IC50>5000 nM • NT=not tested
(An ELISA detects its analyte on a solid surface through an enzyme-linked reagent.)

T1 sequence (P07333 20-972): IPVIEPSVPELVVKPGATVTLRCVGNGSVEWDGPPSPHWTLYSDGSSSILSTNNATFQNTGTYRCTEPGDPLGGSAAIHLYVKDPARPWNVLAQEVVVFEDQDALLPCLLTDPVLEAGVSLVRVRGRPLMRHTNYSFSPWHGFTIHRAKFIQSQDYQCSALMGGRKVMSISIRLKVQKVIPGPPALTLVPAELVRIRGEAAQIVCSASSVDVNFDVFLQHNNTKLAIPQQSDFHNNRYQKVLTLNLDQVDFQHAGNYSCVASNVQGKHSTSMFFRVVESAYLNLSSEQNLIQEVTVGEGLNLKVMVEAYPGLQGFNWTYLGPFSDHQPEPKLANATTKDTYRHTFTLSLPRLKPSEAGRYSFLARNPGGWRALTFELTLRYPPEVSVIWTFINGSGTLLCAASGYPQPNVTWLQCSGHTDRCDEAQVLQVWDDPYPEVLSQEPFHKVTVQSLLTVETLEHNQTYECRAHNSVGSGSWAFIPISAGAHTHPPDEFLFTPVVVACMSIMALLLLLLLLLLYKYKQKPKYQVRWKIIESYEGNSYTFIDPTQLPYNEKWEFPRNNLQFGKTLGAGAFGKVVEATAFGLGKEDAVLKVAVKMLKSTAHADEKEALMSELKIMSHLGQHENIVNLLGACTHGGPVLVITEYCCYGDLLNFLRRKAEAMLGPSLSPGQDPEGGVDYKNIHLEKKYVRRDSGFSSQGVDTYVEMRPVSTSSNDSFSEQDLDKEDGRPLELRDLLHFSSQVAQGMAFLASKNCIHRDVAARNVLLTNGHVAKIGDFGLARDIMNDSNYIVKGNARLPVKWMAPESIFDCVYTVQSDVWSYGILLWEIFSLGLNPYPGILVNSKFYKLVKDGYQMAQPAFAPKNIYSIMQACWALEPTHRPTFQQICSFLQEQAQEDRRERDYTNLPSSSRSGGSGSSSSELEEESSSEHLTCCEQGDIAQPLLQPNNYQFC

Consider `Nc1ncc(-c2ccc(CN3CCN[C@@H](C(=O)OC4CCCC4)C3)cc2)nc1NCc1c(Cl)cccc1Cl` [Example 11, Cyclopentyl (2R)-4-(4-{5-amino-6-[(2,6-dichlorobenzyl)amino]pyrazin-2-yl}benzyl)piperazine-2-carboxylate], for which the IC50 was 300 to 1000 nM on CSF1R (FMS) and less than 100 nM in the assay with MCP-1.

Take `Nc1ncc(-c2ccc(CNC3CCN[C@@H](C(=O)OC4CCCC4)C3)cc2)nc1NCc1c(F)cccc1F` (stereo partly drawn) [Example 14, Cyclopentyl (2R)-4-[(4-{5-amino-6-[(2,6-difluorobenzyl)amino]pyrazin-2-yl}benzyl)amino]piperidine-2-carboxylate di-formate]: the values for the IC50 at CSF1R (FMS) and in the assay on MCP-1 were 100 to 300 nM and 300 to 1000 nM, respectively.

Take `Nc1ncc(-c2ccc(CNC3CCN[C@@H](C(=O)OC4CCCC4)C3)c(Cl)c2)nc1NCc1c(Cl)cccc1Cl` (stereo partly drawn) [Example 18, Cyclopentyl (2R)-4-[(4-{5-amino-6-[(2,6-dichlorobenzyl)amino]pyrazin-2-yl}-2-chlorobenzyl)amino]piperidine-2-carboxylate]: the IC50 at CSF1R (FMS) and in the assay with MCP-1 was 100 to 300 nM in each case.

As to `Cc1cc(-c2cnc(N)c(NCc3c(Cl)cccc3Cl)n2)ccc1CNC1CCN[C@@H](C(=O)OC2CCCC2)C1` (stereo partly drawn) [Example 19, Cyclopentyl (2R)-4-[(4-{5-amino-6-[(2,6-dichlorobenzyl)amino]pyrazin-2-yl}-2-methylbenzyl)amino]piperidine-2-carboxylate], the IC50 on CSF1R (FMS) and with MCP-1 was less than 100 nM in each case.

On to `CCc1cc(-c2cnc(N)c(NCc3c(Cl)cccc3Cl)n2)ccc1CN1CCNC(C(=O)OC2CCCC2)C1` (centres unmarked) [Example 20, Cyclopentyl 4-(4-{5-amino-6-[(2,6-dichlorobenzyl)amino]pyrazin-2-yl}-2-ethylbenzyl)piperazine-2-carboxylate], for which the IC50 on CSF1R (FMS) is 1000 to 5000 nM; in the assay with MCP-1, less than 100 nM.

With `CC(C)(C)OC(=O)[C@H]1CC(NCc2ccc(-c3cnc(N)c(NCc4c(Cl)cccc4Cl)n3)cc2)CCN1` (stereo partly drawn) [Example 21, tert-Butyl (2R)-4-[(4-{5-amino-6-[(2,6-dichlorobenzyl)amino]pyrazin-2-yl}benzyl)amino]piperidine-2-carboxylate], the values for the IC50 at CSF1R (FMS) and in the assay with MCP-1 were less than 100 nM and 300 to 1000 nM, respectively.

With `CC(C)(C)OC(=O)[C@@H]1CC(NCc2ccc(-c3cnc(N)c(NCc4c(Cl)cccc4Cl)n3)cc2)CCN1` (stereo partly drawn) [Example 22, tert-Butyl (2S)-4-[(4-{5-amino-6-[(2,6-dichlorobenzyl)amino]pyrazin-2-yl}benzyl)amino]piperidine-2-carboxylate], the IC50 on CSF1R (FMS) was less than 100 nM; in the assay with MCP-1 it was 300 to 1000 nM.

For the molecule `CC(C)(C)OC(=O)C1CN(Cc2ccc(-c3cnc(N)c(NCc4c(Cl)cccc4Cl)n3)cc2)CCN1` (centres unmarked) [Example 23, tert-Butyl 4-(4-{5-amino-6-[(2,6-dichlorobenzyl)amino]pyrazin-2-yl}benzyl)piperazine-2-carboxylate], the IC50 at CSF1R (FMS) and in the assay with MCP-1 was 300 to 1000 nM in each case.

In the case of `CC(C)(C)OC(=O)[C@H]1CC(NCc2ccc(-c3cnc(N)c(NCc4c(Cl)cccc4Cl)n3)cc2Cl)CCN1` (stereo partly drawn) [Example 25, tert-Butyl (2R)-4-[(4-{5-amino-6-[(2,6-dichlorobenzyl)amino]pyrazin-2-yl}-2-chlorobenzyl)amino]piperidine-2-carboxylate], the values for the IC50 at CSF1R (FMS) and in the assay with MCP-1 were 100 to 300 nM and 300 to 1000 nM, respectively.

Regarding `Cc1cc(-c2cnc(N)c(NCc3c(Cl)cccc3Cl)n2)ccc1CNC1CCN[C@@H](C(=O)OC(C)(C)C)C1` (stereo partly drawn) [Example 26, tert-Butyl (2R)-4-[(4-{5-amino-6-[(2,6-dichlorobenzyl)amino]pyrazin-2-yl}-2-methylbenzyl)amino]piperidine-2-carboxylate], the IC50 on CSF1R (FMS) was less than 100 nM; with MCP-1, 300 to 1000 nM.

In the case of `CCN(Cc1ccc(-c2cnc(N)c(NCc3c(Cl)cccc3Cl)n2)cc1)C1CCN[C@@H](C(=O)OC2CCCC2)C1` (stereo partly drawn) [Example 27, Cyclopentyl (2R)-4-[(4-{5-amino-6-[(2,6-dichlorobenzyl)amino]pyrazin-2-yl}benzyl)(ethyl)amino]piperidine-2-carboxylate], the IC50 on CSF1R (FMS) is 100 to 300 nM; with MCP-1, less than 100 nM.

In the case of `CN(Cc1ccc(-c2cnc(N)c(NCc3c(Cl)cccc3Cl)n2)cc1)C1CCN[C@@H](C(=O)OC2CCCC2)C1` (stereo partly drawn) [Example 28, Cyclopentyl (2R)-4-[(4-{5-amino-6-[(2,6-dichlorobenzyl)amino]pyrazin-2-yl}benzyl)(methyl)amino]piperidine-2-carboxylate], the IC50 is 100 to 300 nM at CSF1R (FMS) and less than 100 nM in the assay with MCP-1.

Take `CCN(Cc1ccc(-c2cnc(N)c(NCc3c(Cl)cccc3Cl)n2)cc1)C1CCN[C@@H](C(=O)OC(C)(C)C)C1` (stereo partly drawn) [Example 30, tert-Butyl (2R)-4-[(4-{5-amino-6-[(2,6-dichlorobenzyl)amino]pyrazin-2-yl}benzyl)(ethyl)amino]piperidine-2-carboxylate]: the IC50 on CSF1R (FMS) and with MCP-1 was 100 to 300 nM in each case.

With `CC(=O)N(Cc1ccc(-c2cnc(N)c(NCc3c(Cl)cccc3Cl)n2)cc1)C1CCN[C@@H](C(=O)OC2CCCC2)C1` (stereo partly drawn) [Example 31, Cyclopentyl (2R)-4-[acetyl(4-{5-amino-6-[(2,6-dichlorobenzyl)amino]pyrazin-2-yl}benzyl)amino]piperidine-2-carboxylate], the values for the IC50 on CSF1R (FMS) and in the assay with MCP-1 were 100 to 300 nM and less than 100 nM, respectively.

For `Nc1ncc(-c2cccc(C(=O)NC3CCN[C@@H](C(=O)OC4CCCC4)C3)c2)nc1NCc1c(Cl)cccc1Cl` (stereo partly drawn) [Example 32, Cyclopentyl (2R)-4-[(3-{5-amino-6-[(2,6-dichlorobenzyl)amino]pyrazin-2-yl}benzoyl)amino]piperidine-2-carboxylate], the IC50 was in the range of 100 to 300 nM on CSF1R (FMS) and 1000 to 5000 nM in the assay on MCP-1.

Take `CC(C)(C)OC(=O)[C@H]1CC(NC(=O)c2cccc(-c3cnc(N)c(NCc4c(Cl)cccc4Cl)n3)c2)CCN1` (stereo partly drawn) [Example 33, tert-Butyl (2R)-4-[(3-{5-amino-6-[(2,6-dichlorobenzyl)amino]pyrazin-2-yl}benzoyl)amino]piperidine-2-carboxylate]: the IC50 lay within 100 to 300 nM on CSF1R (FMS) and 1000 to 5000 nM with MCP-1.

Take `Nc1ncc(-c2cccc(CNC3CCN[C@@H](C(=O)OC4CCCC4)C3)c2)nc1NCc1c(Cl)cccc1Cl` (stereo partly drawn) [Example 34, Cyclopentyl (2R)-4-[(3-{5-amino-6-[(2,6-dichlorobenzyl)amino]pyrazin-2-yl}benzyl)amino]piperidine-2-carboxylate]: the IC50 on CSF1R (FMS) was less than 100 nM; in the assay with MCP-1, 100 to 300 nM.

On to `Nc1ncc(-c2cccc(CNC3CCN[C@H](C(=O)OC4CCCC4)C3)c2)nc1NCc1c(Cl)cccc1Cl` (stereo partly drawn) [Example 35, Cyclopentyl (2S)-4-[(3-{5-amino-6-[(2,6-dichlorobenzyl)amino]pyrazin-2-yl}benzyl)amino]piperidine-2-carboxylate di-formate], for which the figures for the IC50 on CSF1R (FMS) and with MCP-1 were less than 100 nM and 300 to 1000 nM, respectively.

On to `Nc1ncc(-c2cccc(CN3CCN[C@H](C(=O)OC4CCCC4)C3)c2)nc1NCc1c(Cl)cccc1Cl` [Example 36, Cyclopentyl (2S)-4-(3-{5-amino-6-[(2,6-dichlorobenzyl)amino]pyrazin-2-yl}benzyl)piperazine-2-carboxylate], for which the IC50 at CSF1R (FMS) was in the range of 300 to 1000 nM; with MCP-1, 100 to 300 nM.
